Assays:
Format in all cases: cell-based
[1] = test system: H1 or H9 human embryonic stem cells; assay: Activin A bioassay: differentiation of human embryonic stem cells to definitive endoderm, cell number and SOX17 intensity by high content analysis (96-well, four days)
Procedure, shortened: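 Read-out was cell count and integrated SOX17 immunofluorescence by high-content imaging, with each well divided by the mean of the 100 ng/ml activin A control. Over the four-day culture, test samples were given in DMEM:F12 with 0.5% FCS plus 20 ng/ml Wnt3a for the first two days and in 2% FCS alone for the last two. Cells were H1 or H9 hESC clusters grown on Matrigel.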

[2] = test system: Human Embryonic Stem Cells (H1 hESC line); assay: FACS analysis of CXCR4 at conclusion of first step of step-wise differentiation (Example 12); settings: 100 ng/ml peptide, end of first step (three days), FIG. 23A, 23B
Protocol: (§1) Preparation of Cells for Assay: Stock Cultures of Human Embryonic Stem Cells (H1 hESC line) were maintained in an undifferentiated, pluripotent state on growth factor-reduced MATRIGEL™-coated dishes in MEF conditioned medium supplemented with bFGF (PeproTech; Cat #100-18B) with passage on average every, four days. Passage was performed by exposing cell cultures to a solution of 1 mg/ml collagenase (Invitrogen, Cat #17104-019) for five to seven minutes at 37° C. followed by rinsing the monolayer with MEF conditioned medium and gentle scraping to recover cell clusters. Clusters were centrifuged at low speed to collect a cell pellet and remove residual collagenase. Cell clusters were split at a 1:3 or 1:4 ratio for routine maintenance culture or a 1:1 ratio for immediate assay. All human ES cell lines were maintained at passage numbers less than 50 and routinely evaluated for normal karyotypic phenotype and for absence of mycoplasma contamination.
(§2) Cell clusters were evenly resuspended in MEF conditioned medium supplemented with 8 ng/ml bFGF and seeded onto growth factor-reduced MATRIGEL™-coated 24-well, black wall culture plates (Arctic White; Cat #AWLS-303012) in volumes of 0.5 ml/well. Daily feeding was conducted by aspirating spent culture medium from each well and replacing with an equal volume of fresh medium. Plates were maintained at 37° C., 5% CO2 throughout the duration of assay.
(§3) Assay: The assay was initiated by aspirating culture medium from each well and adding back an aliquot (0.5 ml) of test medium. Test conditions for the first step of differentiation were conducted over a three-day period, feeding daily by aspirating and replacing the medium from each well with fresh test medium. Concentrated supernatants of the ACTN peptides were evaluated for protein concentration using a DuoSet ELISA kit for human activin A (R&D Systems; Cat #DY338), as previously described in Example 11. On the first day of assay, ACTN peptides were diluted to a final concentration of 100 ng/ml in RPMI 1640 medium (Invitrogen; Cat #: 22400) with 2% Albumin Bovine Fraction V, Fatty Acid Free (FAF BSA) (MP Biomedicals, Inc; Cat #152401), 8 ng/ml bFGF, and 20 ng/ml Wnt3a (R&D Systems; Cat #1324-WN/CF) and then added to the assay wells. On the second and third day of assay, ACTN peptides were diluted into RPMI 1640 medium supplemented with 2% fatty acid free BSA and 8 ng/ml bFGF, without any Wnt3a and then added to the assay wells. A positive control sample included a commercial source of activin A (PeproTech; Cat #12 0-14) diluted in culture medium with growth factors as indicated. At the conclusion of three days culture, cells from some wells were harvested for analysis by flow cytometry to evaluate levels of CXCR4, a marker of definitive endoderm formation. […]

[3] = test system: Human Embryonic Stem Cells (H1 hESC line); assay: High content analysis of cell number and SOX17 expression at end of first step of differentiation (Example 12); settings: 100 ng/ml peptide, FIG. 23C-F
Protocol: as §1, §2, §3

## activin A [reference compound]
[1]; Wnt3a omitted from treatment on days 1 and 2
  SOX17 expression: failed to produce measurable SOX17 expression
[1]; commercial activin A (Peprotech), 20 ng/ml Wnt3a on days 1 and 2, four days
  Optimal activin A effects for induction of SOX17 expression (concentration range): 100 to 200 ng/mL
[1]; commercial activin A (Peprotech), two-fold dilution curve, 20 ng/ml Wnt3a on days 1 and 2, four days
  EC50 for induction of SOX17 expression: 0.03 to 0.05 µg/mL
[2]
  CXCR4 expression (FACS): equivalent and robust CXCR4 expression
[3]
  cell number and SOX17 expression (high content analysis): equivalent results

— patent US20110091971A1, “Differentiation of Pluripotent Stem Cells” (priority 2008, published 2011)
